Measurements reported in patent US20230391768A2, “IMIDAZOPYRIDINE DERIVATIVES AND AZA-IMIDAZOPYRIDINE DERIVATIVES AS JANUS KINASE 2 INHIBITORS AND USES THEREOF” (Dana-Farber Cancer Institute, Inc., priority 2018, published 2023).

Tests used:
Assay in all cases: KINOMEscan
Format in all cases: binding
[1] = target: ABL1(T315I)-phosphorylated (Homo sapiens (Human), UniProt P00519, T315I); settings: read-out: percent of control
Method: (§1) In vitro profiling of Compound I-2 (1 μM) was performed using the DiscoveRx KINOMEscan® platform.

CAMK2D = CAMK2D (Homo sapiens (Human), UniProt Q13557); settings: read-out: percent of control
Method: as §1

CAMKK2 = CAMKK2 (Homo sapiens (Human), UniProt Q96RR4); settings: read-out: percent of control
Method: as §1

CDC2L1 = CDC2L1 (Homo sapiens (Human), UniProt P21127); settings: read-out: percent of control
Method: as §1

CDKL1 = CDKL1 (Homo sapiens (Human), UniProt Q00532); settings: read-out: percent of control
Method: as §1

CDKL2 = CDKL2 (Homo sapiens (Human), UniProt Q92772); settings: read-out: percent of control
Method: as §1

CIT = CIT (Homo sapiens (Human), UniProt O14578); settings: read-out: percent of control
Method: as §1

CSNK1D = CSNK1D (Homo sapiens (Human), UniProt P48730); settings: read-out: percent of control
Method: as §1

CSNK1G2 = CSNK1G2 (Homo sapiens (Human), UniProt P78368); settings: read-out: percent of control
Method: as §1

DAPK3 = DAPK3 (Homo sapiens (Human), UniProt O43293); settings: read-out: percent of control
Method: as §1

DRAK1 = DRAK1 (Homo sapiens (Human), UniProt Q9UEE5); settings: read-out: percent of control
Method: as §1

EPHB 1 = EPHB 1 (Homo sapiens (Human), UniProt P54762); settings: read-out: percent of control
Method: as §1

EPHB6 = EPHB6 (Homo sapiens (Human), UniProt O15197); settings: read-out: percent of control
Method: as §1

GCN2(Kin.Dom.2,S808G) = GCN2(Kin.Dom.2,S808G) (Homo sapiens (Human), UniProt Q9P2K8, S808G); settings: read-out: percent of control
Method: as §1

[2] = target: JAK3(JH1domain-catalytic) (Homo sapiens (Human), UniProt P52333); settings: for remaining binding at 1 µM: JAK3(JH1domain-catalytic), read-out: percent of control
Method: as §1

MAP3K4 = MAP3K4 (Homo sapiens (Human), UniProt Q9Y6R4); settings: read-out: percent of control
Method: as §1

MEK1 = MEK1 (Homo sapiens (Human), UniProt Q02750); settings: read-out: percent of control
Method: as §1

MEK2 = MEK2 (Homo sapiens (Human), UniProt P36507); settings: read-out: percent of control
Method: as §1

MLK3 = MLK3 (Homo sapiens (Human), UniProt Q16584); settings: read-out: percent of control
Method: as §1

MST1R = MST1R (Homo sapiens (Human), UniProt Q04912); settings: read-out: percent of control
Method: as §1

MST3 = MST3 (Homo sapiens (Human), UniProt Q9Y6E0); settings: read-out: percent of control
Method: as §1

MYLK2 = MYLK2 (Homo sapiens (Human), UniProt Q9H1R3); settings: read-out: percent of control
Method: as §1

MYO3B = MYO3B (Homo sapiens (Human), UniProt Q8WXR4); settings: read-out: percent of control
Method: as §1

NEK7 = NEK7 (Homo sapiens (Human), UniProt Q8TDX7); settings: read-out: percent of control
Method: as §1

PAK4 = PAK4 (Homo sapiens (Human), UniProt O96013); settings: read-out: percent of control
Method: as §1

PIKFYVE = PIKFYVE (Homo sapiens (Human), UniProt Q9Y2I7); settings: read-out: percent of control
Method: as §1

PIM1 = PIM1 (Homo sapiens (Human), UniProt P11309); settings: read-out: percent of control
Method: as §1

PIP5K2C = PIP5K2C (Homo sapiens (Human), UniProt Q8TBX8); settings: read-out: percent of control
Method: as §1

PLK3 = PLK3 (Homo sapiens (Human), UniProt Q9H4B4); settings: read-out: percent of control
Method: as §1

PRP4 = PRP4 (Homo sapiens (Human), UniProt Q13523); settings: read-out: percent of control
Method: as §1

RET (M918T) = RET (M918T) (Homo sapiens (Human), UniProt P07949, M918T); settings: read-out: percent of control
Method: as §1

RIPK5 = RIPK5 (Homo sapiens (Human), UniProt Q6XUX3); settings: read-out: percent of control
Method: as §1

[3] = target: RSK4 (Kin.Dom.1-N-terminal) (Homo sapiens (Human), UniProt Q9UK32); settings: read-out: percent of control
Method: as §1

SRPK2 = SRPK2 (Homo sapiens (Human), UniProt P78362); settings: read-out: percent of control
Method: as §1

TAOK3 = TAOK3 (Homo sapiens (Human), UniProt Q9H2K8); settings: read-out: percent of control
Method: as §1

[4] = target: TYK2(JH1domain-catalytic) (Homo sapiens (Human), UniProt P29597); settings: read-out: percent of control
Method: as §1

VRK2 = VRK2 (Homo sapiens (Human), UniProt Q86Y07); settings: read-out: percent of control
Method: as §1

YSK4 = YSK4 (Homo sapiens (Human), UniProt Q56UN5); settings: read-out: percent of control
Method: as §1

Chain of JAK3(JH1domain-catalytic) (P52333 822-1111): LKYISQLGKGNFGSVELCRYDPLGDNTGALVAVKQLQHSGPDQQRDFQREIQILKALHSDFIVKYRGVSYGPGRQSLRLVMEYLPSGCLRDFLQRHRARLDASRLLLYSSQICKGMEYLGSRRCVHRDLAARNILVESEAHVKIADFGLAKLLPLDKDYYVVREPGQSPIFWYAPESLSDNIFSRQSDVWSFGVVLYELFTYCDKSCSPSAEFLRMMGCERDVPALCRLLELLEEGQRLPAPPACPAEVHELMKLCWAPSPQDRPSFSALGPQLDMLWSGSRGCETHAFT
Chain of CSNK1G2 (P78368 whole entry): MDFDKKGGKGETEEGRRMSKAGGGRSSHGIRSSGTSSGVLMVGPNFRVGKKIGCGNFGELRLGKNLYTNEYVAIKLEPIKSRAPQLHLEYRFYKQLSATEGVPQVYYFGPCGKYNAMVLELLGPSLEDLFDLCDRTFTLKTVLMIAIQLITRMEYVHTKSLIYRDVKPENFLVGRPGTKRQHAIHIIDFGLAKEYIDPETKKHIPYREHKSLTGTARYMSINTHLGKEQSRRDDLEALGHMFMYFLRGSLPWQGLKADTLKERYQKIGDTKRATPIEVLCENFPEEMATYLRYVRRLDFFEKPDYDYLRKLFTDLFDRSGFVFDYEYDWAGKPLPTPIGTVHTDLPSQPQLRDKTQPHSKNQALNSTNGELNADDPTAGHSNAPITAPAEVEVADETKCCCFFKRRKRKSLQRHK
Chain of MST3 (Q9Y6E0 whole entry): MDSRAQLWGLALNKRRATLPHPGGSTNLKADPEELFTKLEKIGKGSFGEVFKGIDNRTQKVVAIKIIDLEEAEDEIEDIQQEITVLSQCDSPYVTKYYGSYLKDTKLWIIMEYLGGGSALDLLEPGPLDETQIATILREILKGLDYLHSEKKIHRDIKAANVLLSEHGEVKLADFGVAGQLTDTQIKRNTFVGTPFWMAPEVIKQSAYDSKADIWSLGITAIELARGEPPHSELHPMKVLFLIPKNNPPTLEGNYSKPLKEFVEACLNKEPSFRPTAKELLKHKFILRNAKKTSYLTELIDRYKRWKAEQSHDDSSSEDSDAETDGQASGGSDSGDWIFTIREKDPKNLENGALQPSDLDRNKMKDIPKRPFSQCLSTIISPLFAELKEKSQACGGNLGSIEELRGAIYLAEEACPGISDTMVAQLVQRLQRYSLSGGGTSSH
Chain of GCN2(Kin.Dom.2,S808G) (Q9P2K8 590-1001 S808G): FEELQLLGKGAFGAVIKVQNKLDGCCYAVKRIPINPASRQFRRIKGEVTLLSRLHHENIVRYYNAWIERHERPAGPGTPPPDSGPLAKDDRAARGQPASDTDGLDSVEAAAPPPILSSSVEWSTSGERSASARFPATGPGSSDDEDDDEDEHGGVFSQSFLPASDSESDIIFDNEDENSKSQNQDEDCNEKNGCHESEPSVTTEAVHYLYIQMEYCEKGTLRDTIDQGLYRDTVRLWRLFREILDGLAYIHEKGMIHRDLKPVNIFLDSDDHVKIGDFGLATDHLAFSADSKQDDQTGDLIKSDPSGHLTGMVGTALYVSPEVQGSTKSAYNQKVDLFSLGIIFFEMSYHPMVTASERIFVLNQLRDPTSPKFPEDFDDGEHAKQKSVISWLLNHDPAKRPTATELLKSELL
Chain of MLK3 (Q16584 whole entry): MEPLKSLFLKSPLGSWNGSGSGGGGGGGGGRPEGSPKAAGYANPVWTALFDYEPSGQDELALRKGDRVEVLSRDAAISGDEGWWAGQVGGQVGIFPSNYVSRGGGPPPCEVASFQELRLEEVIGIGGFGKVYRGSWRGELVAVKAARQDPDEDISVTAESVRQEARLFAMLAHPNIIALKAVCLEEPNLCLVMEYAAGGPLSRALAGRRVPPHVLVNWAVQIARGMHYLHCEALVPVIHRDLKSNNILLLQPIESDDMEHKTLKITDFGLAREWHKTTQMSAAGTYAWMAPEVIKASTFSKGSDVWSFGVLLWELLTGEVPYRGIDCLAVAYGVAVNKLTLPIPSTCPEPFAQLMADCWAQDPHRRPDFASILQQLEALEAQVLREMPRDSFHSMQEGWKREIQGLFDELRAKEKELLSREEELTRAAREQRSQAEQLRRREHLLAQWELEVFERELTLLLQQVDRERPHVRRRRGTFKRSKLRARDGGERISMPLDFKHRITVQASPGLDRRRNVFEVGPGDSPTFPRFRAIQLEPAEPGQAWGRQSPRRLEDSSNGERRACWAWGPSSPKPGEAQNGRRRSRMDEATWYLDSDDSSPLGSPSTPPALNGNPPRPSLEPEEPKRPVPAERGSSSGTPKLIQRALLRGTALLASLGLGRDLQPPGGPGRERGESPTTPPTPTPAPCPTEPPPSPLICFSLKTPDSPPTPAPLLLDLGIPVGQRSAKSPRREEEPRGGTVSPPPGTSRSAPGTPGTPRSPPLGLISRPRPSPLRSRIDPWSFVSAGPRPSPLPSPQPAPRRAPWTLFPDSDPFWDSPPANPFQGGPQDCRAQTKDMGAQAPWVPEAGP
Chain of EPHB6 (O15197 32-1021): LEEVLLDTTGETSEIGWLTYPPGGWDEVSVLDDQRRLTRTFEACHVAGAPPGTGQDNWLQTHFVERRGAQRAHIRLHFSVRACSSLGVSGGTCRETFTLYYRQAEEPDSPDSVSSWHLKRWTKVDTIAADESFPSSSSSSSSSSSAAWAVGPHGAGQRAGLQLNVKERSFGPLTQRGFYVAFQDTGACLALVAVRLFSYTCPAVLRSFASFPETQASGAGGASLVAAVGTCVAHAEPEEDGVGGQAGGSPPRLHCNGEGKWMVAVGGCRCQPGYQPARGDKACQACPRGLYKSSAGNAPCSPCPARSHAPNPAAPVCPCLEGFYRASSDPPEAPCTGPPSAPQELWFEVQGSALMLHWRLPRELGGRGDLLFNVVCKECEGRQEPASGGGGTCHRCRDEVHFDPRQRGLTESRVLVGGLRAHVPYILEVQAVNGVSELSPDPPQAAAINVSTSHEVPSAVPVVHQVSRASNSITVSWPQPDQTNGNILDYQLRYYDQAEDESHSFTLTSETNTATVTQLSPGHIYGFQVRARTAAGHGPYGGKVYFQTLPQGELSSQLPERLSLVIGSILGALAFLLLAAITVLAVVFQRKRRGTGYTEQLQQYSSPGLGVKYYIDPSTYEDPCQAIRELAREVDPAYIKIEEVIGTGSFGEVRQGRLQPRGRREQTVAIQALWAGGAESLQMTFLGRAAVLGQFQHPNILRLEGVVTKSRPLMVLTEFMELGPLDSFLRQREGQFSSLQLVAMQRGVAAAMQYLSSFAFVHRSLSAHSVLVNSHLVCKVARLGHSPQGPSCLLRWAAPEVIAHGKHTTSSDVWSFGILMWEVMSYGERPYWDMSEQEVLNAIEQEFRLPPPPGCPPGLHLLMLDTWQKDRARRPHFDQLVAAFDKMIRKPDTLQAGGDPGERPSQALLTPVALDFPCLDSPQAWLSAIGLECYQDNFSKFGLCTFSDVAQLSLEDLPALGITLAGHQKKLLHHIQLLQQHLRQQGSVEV
Chain of CDKL1 (Q00532 whole entry): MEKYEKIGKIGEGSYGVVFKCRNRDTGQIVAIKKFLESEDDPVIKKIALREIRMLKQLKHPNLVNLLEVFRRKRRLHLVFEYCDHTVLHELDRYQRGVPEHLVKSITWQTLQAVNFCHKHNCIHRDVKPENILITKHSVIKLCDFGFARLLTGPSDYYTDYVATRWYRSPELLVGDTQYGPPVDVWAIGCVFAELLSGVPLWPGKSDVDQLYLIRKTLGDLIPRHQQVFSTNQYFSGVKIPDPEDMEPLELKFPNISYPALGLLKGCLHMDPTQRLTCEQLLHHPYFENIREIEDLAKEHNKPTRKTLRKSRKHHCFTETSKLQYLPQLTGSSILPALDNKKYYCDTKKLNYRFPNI
Chain of NEK7 (Q8TDX7 whole entry): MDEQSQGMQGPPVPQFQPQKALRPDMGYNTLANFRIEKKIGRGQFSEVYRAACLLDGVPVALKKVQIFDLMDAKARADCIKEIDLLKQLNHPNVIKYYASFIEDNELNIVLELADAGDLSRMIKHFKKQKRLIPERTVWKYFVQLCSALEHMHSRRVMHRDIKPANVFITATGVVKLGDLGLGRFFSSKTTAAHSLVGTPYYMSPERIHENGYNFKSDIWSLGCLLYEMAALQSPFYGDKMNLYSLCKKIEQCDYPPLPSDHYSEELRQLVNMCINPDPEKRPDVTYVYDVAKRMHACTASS
Chain of CDC2L1 (P21127 whole entry): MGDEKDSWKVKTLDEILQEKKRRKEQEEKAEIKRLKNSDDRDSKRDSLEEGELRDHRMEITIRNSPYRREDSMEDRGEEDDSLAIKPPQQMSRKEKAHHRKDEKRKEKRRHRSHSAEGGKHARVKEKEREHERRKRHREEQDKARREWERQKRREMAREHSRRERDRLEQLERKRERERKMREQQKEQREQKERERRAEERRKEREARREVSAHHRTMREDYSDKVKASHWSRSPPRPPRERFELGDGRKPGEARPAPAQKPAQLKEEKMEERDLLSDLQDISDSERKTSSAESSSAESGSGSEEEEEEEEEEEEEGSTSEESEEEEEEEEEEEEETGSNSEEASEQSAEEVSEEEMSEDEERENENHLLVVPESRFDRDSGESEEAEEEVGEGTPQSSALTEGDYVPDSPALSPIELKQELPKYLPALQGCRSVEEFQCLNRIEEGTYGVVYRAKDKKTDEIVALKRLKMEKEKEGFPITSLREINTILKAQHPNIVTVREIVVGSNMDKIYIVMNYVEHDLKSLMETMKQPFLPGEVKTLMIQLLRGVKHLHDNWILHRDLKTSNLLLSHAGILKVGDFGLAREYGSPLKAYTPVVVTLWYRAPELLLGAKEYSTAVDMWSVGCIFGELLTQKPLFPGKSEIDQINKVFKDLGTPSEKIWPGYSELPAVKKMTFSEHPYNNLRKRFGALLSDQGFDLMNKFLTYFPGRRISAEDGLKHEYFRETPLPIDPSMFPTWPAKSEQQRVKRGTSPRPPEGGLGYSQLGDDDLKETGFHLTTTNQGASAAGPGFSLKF

CCN1CCN(Cc2cc(NC(=O)c3ccc(C)c(-c4ccc5nc(NC(=O)C6CC6)cn5n4)c3)cc(C(F)(F)F)c2)CC1 [Compound I-2, 3-(2-(cyclopropanecarboxamido)imidazo[1,2-b]pyridazin-6-yl)-N-(3-((4-ethylpiperazin-1-yl)methyl)-5-(trifluoromethyl)phenyl)-4-methylbenzamide]
remaining binding at 1 µM [1]: 1.4%
remaining binding at 1 µM (CAMK2D): 100%
remaining binding at 1 µM (CAMKK2): 28%
remaining binding at 1 µM (CDC2L1): 44%
remaining binding at 1 µM (CDKL1): 40%
remaining binding at 1 µM (CDKL2): 0%
remaining binding at 1 µM (CIT): 0.1%
remaining binding at 1 µM (CSNK1D): 100%
remaining binding at 1 µM (CSNK1G2): 92%
remaining binding at 1 µM (DAPK3): 93%
remaining binding at 1 µM (DRAK1): 100%
remaining binding at 1 µM (EPHB 1): 0.65%
remaining binding at 1 µM (EPHB6): 78%
remaining binding at 1 µM (GCN2(Kin.Dom.2,S808G)): 82%
remaining binding at 1 µM [2]: 0%
selectivity for JAK3 over JAK2, JAK1, and TYK2 ([2]; KINOMEscan, 1 μM): more selective for JAK3 over JAK2, JAK1, and TYK2
remaining binding at 1 µM (MAP3K4): 89%
remaining binding at 1 µM (MEK1): 92%
remaining binding at 1 µM (MEK2): 95%
remaining binding at 1 µM (MLK3): 76%
remaining binding at 1 µM (MST1R): 83%
remaining binding at 1 µM (MST3): 85%
remaining binding at 1 µM (MYLK2): 92%
remaining binding at 1 µM (MYO3B): 80%
remaining binding at 1 µM (NEK7): 99%
remaining binding at 1 µM (PAK4): 96%
remaining binding at 1 µM (PIKFYVE): 93%
remaining binding at 1 µM (PIM1): 90%
remaining binding at 1 µM (PIP5K2C): 5.7%
remaining binding at 1 µM (PLK3): 100%
remaining binding at 1 µM (PRP4): 87%
remaining binding at 1 µM (RET (M918T)): 0.05%
remaining binding at 1 µM (RIPK5): 89%
remaining binding at 1 µM [3]: 93%
remaining binding at 1 µM (SRPK2): 73%
remaining binding at 1 µM (TAOK3): 0.2%
remaining binding at 1 µM [4]: 54%
remaining binding at 1 µM (VRK2): 88%
remaining binding at 1 µM (YSK4): 30%

CCN1CCN(Cc2cc(NC(=O)c3ccc(C)c(-c4ccc5nc(NC(=O)C6CC6)cn5c4)c3)cc(C(F)(F)F)c2)CC1 [Compound I-6, 3-(2-(cyclopropanecarboxamido)imidazo[1,2-a]pyridin-6-yl)-N-(3-((4-ethylpiperazin-1-yl)methyl)-5-(trifluoromethyl)phenyl)-4-methylbenzamide]
remaining binding at 1 µM [1]: 2.2%
remaining binding at 1 µM (CAMK2D): 92%
remaining binding at 1 µM (CAMKK2): 41%
remaining binding at 1 µM (CDC2L1): 33%
remaining binding at 1 µM (CDKL1): 77%
remaining binding at 1 µM (CDKL2): 0.8%
remaining binding at 1 µM (CIT): 0.35%
remaining binding at 1 µM (CSNK1D): 100%
remaining binding at 1 µM (CSNK1G2): 100%
remaining binding at 1 µM (DAPK3): 100%
remaining binding at 1 µM (DRAK1): 94%
remaining binding at 1 µM (EPHB 1): 0.25%
remaining binding at 1 µM (EPHB6): 64%
remaining binding at 1 µM (GCN2(Kin.Dom.2,S808G)): 97%
remaining binding at 1 µM [2]: 0%
remaining binding at 1 µM (MAP3K4): 81%
remaining binding at 1 µM (MEK1): 94%
remaining binding at 1 µM (MEK2): 95%
remaining binding at 1 µM (MLK3): 82%
remaining binding at 1 µM (MST1R): 100%
remaining binding at 1 µM (MST3): 92%
remaining binding at 1 µM (MYLK2): 83%
remaining binding at 1 µM (MYO3B): 49%
remaining binding at 1 µM (NEK7): 91%
remaining binding at 1 µM (PAK4): 96%
remaining binding at 1 µM (PIKFYVE): 100%
remaining binding at 1 µM (PIM1): 93%
remaining binding at 1 µM (PIP5K2C): 46%
remaining binding at 1 µM (PLK3): 100%
remaining binding at 1 µM (PRP4): 100%
remaining binding at 1 µM (RET (M918T)): 0%
remaining binding at 1 µM (RIPK5): 100%
remaining binding at 1 µM [3]: 87%
remaining binding at 1 µM (SRPK2): 100%
remaining binding at 1 µM (TAOK3): 0.9%
remaining binding at 1 µM [4]: 41%
remaining binding at 1 µM (VRK2): 92%
remaining binding at 1 µM (YSK4): 29%
